Test systems include ACHN; CCRF-CEM; HOP-62; KM12; MOLT-4; NCI-H460; OVCAR-5; OVCAR-8; RPMI-8226; RXF 393; SK-MEL-28; SK-MEL-2; SN12C; SNB-75; SW-620; TK-10; UACC-62; UO-31; Malme-3M; NCI-H23.
Common to all, as to experiment: NCI-60 cell line screen, 48 h

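A five-concentration, 48-hour dose response in 96-well plates underlies each endpoint, interpolated linearly between surrounding concentrations. At the GI50, growth is halved.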 Calls of active or inactive are those of the source. Rule as the data show it: active = GI50 up to about 1.1 µM and inactive = higher. Some results are limits rather than exact numbers.

`CN1c2ccc(Cl)cc2C(=O)NC1c1ccc([N+](=O)[O-])s1` (configuration not stated): the GI50 in the assay on ACHN was 19.4 µM (inactive); in the assay on CCRF-CEM, 39.5 µM (inactive); with HOP-62, 18.5 µM (inactive); with KM12 it was 16.4 µM (inactive); in the assay with MOLT-4 it was 10.4 µM (inactive); in the assay on NCI-H460, 16.1 µM (inactive). In addition, the GI50 is 20.2 µM (inactive) in the assay with OVCAR-5; 15.8 µM (inactive) in the assay with OVCAR-8; 6.19 µM (inactive) with RPMI-8226; 11.6 µM (inactive) in the assay with RXF 393; 18.7 µM (inactive) in the assay with SK-MEL-28; 16.4 µM (inactive) with SK-MEL-2. Moreover, the GI50 is 16.6 µM (inactive) with SN12C; 12 µM (inactive) in the assay with SNB-75; 32.7 µM (inactive) in the assay with SW-620; 20.2 µM (inactive) with TK-10; 11.4 µM (inactive) with UACC-62; 12.1 µM (inactive) with UO-31.
Turning to `CO[C@@]12C[C@H](CNC(=O)c3ccc[nH]3)O[C@@H]1NC(=O)N2`, the GI50 in the assay on ACHN, in the assay with HOP-62, in the assay with KM12, in the assay with MOLT-4, with Malme-3M and in the assay with NCI-H23 was > 100 µM (inactive) in each case. Besides, the GI50 in the assay with NCI-H460, in the assay on OVCAR-5, with OVCAR-8, with RPMI-8226, in the assay on SK-MEL-28 and with SK-MEL-2 was > 100 µM (inactive) in each case. Further, the GI50 in the assay on SN12C, in the assay with SNB-75, in the assay with SW-620, in the assay on TK-10, in the assay on UACC-62 and in the assay on UO-31 was > 100 µM (inactive) in each case.
As to `Nc1nc(N)c(-c2ccccc2)c(CCC(=O)Nc2ccc(Cl)cc2)n1`, the GI50 in the assay with ACHN, in the assay with CCRF-CEM, in the assay with HOP-62, in the assay on KM12, with MOLT-4 and with Malme-3M was > 100 µM (inactive) in each case. The GI50 with NCI-H23, in the assay on NCI-H460, in the assay with OVCAR-5, in the assay on OVCAR-8, with RPMI-8226 and in the assay on SK-MEL-28 was > 100 µM (inactive) each time. Besides, the GI50 in the assay with SK-MEL-2, in the assay on SN12C, in the assay with SNB-75, in the assay on SW-620, with TK-10 and in the assay on UACC-62 was > 100 µM (inactive) throughout. For the same molecule, the GI50 with UO-31 is > 100 µM (inactive).
Take `Cc1cc2c(cc1Cl)SC(c1ccccc1O)NS2(=O)=O` (configuration not stated): the GI50 is 52.8 µM (inactive) with ACHN; < 0.01 µM (active) with CCRF-CEM; > 100 µM (inactive) with HOP-62; 94 µM (inactive) in the assay on KM12; 12.5 µM (inactive) in the assay on MOLT-4; 24.4 µM (inactive) in the assay on Malme-3M. The GI50 in the assay on NCI-H23 is 70.6 µM (inactive); with NCI-H460, 92 µM (inactive); with OVCAR-5 it was 40.1 µM (inactive); in the assay on OVCAR-8, > 100 µM (inactive); with RXF 393, 53.5 µM (inactive); with SK-MEL-28, 49.4 µM (inactive). For the same molecule, the GI50 in the assay on SK-MEL-2 was 87.3 µM (inactive); with SN12C it was 41 µM (inactive); in the assay on SNB-75, > 100 µM (inactive); in the assay on SW-620 it was 19.2 µM (inactive); in the assay with TK-10 it was > 100 µM (inactive); in the assay on UACC-62 it was 29.6 µM (inactive). Also, the GI50 in the assay with UO-31 is 63.2 µM (inactive).
For the molecule `O=[N+]([O-])c1ccc(SN=S=NSc2cccc(SN=S=NSc3ccc([N+](=O)[O-])cc3)c2)cc1`, the GI50 with ACHN was 42.3 µM (inactive); with CCRF-CEM, 6 µM (inactive); in the assay on HOP-62, 48.8 µM (inactive); in the assay on KM12 it was 34.2 µM (inactive); in the assay on MOLT-4, 10.2 µM (inactive); with Malme-3M, 28.1 µM (inactive). Further, the GI50 is 31 µM (inactive) in the assay with NCI-H460; 25.4 µM (inactive) with OVCAR-5; 22.4 µM (inactive) in the assay on OVCAR-8; 27.7 µM (inactive) with RPMI-8226; 35.7 µM (inactive) in the assay with SK-MEL-28; 17.1 µM (inactive) in the assay with SK-MEL-2. The GI50 in the assay with SN12C is 12.4 µM (inactive); in the assay on SW-620 it was 20.4 µM (inactive); with UACC-62 it was 37.8 µM (inactive); with UO-31, 23.8 µM (inactive).
For the molecule `CC(C)[C@H](NC(=O)[C@@H](O)[C@H](N)Cc1ccccc1)C(=O)N[C@@H](Cc1ccccc1)C(=O)O`, the GI50 with ACHN, in the assay on CCRF-CEM, in the assay on HOP-62, in the assay with KM12, in the assay with MOLT-4 and with Malme-3M was > 100 µM (inactive) each time. In addition, the GI50 in the assay with NCI-H23, in the assay on NCI-H460, in the assay on OVCAR-5, in the assay on OVCAR-8, in the assay with RPMI-8226 and in the assay with SK-MEL-28 was > 100 µM (inactive) in each case. Also, the GI50 with SK-MEL-2, with SN12C, in the assay with SNB-75, in the assay with SW-620, in the assay with TK-10 and with UACC-62 was > 100 µM (inactive) throughout. Besides, the GI50 in the assay with UO-31 is > 100 µM (inactive).
`O=[N+]([O-])c1ccc(C2c3c(O)nc(O)nc3Oc3nc(O)nc(O)c32)cc1`: the GI50 in the assay on ACHN is > 100 µM (inactive); with CCRF-CEM it was 13.8 µM (inactive); with HOP-62 it was > 100 µM (inactive); with KM12, > 100 µM (inactive); with NCI-H23, > 100 µM (inactive); with NCI-H460 it was > 100 µM (inactive). Further, the GI50 was > 100 µM (inactive) in the assay on OVCAR-5; > 100 µM (inactive) in the assay with OVCAR-8; 28.8 µM (inactive) in the assay with RPMI-8226; 8.36 µM (inactive) with RXF 393; > 100 µM (inactive) with SK-MEL-28; > 100 µM (inactive) with SK-MEL-2. The GI50 in the assay on SN12C is > 100 µM (inactive); with SW-620 it was > 100 µM (inactive); in the assay on TK-10, > 100 µM (inactive); in the assay with UACC-62, 95.3 µM (inactive); with UO-31, > 100 µM (inactive).
Consider `COc1ccccc1NC(=O)C(=O)Cc1cnc2ccccc2n1`, for which the GI50 in the assay with ACHN, in the assay on CCRF-CEM, in the assay with KM12, with MOLT-4, with NCI-H23 and in the assay with NCI-H460 was > 100 µM (inactive) each time. For the same molecule, the GI50 with OVCAR-5, in the assay on OVCAR-8, with RPMI-8226, with RXF 393, in the assay on SK-MEL-28 and with SK-MEL-2 was > 100 µM (inactive) each time. The GI50 is > 100 µM (inactive) in the assay on SN12C; 41 µM (inactive) in the assay with SNB-75; > 100 µM (inactive) in the assay on SW-620; > 100 µM (inactive) with UACC-62; > 100 µM (inactive) in the assay on UO-31.
With `CC1(C)OCC(/C=C\C(O)CC2(C)OCCO2)CO1` (configuration not stated), the GI50 in the assay on ACHN, in the assay with HOP-62, in the assay with KM12, with MOLT-4, in the assay on NCI-H460 and in the assay with OVCAR-5 was > 100 µM (inactive) each time. For the same molecule, the GI50 in the assay with OVCAR-8, in the assay with RPMI-8226, with SK-MEL-28, in the assay with SK-MEL-2, in the assay with SN12C and in the assay on SNB-75 was > 100 µM (inactive) throughout. Moreover, the GI50 in the assay on SW-620, with TK-10, in the assay on UACC-62 and in the assay with UO-31 was > 100 µM (inactive) throughout.
Regarding `COC(=O)C1=C(C)N(NC(=O)c2cccc(Cl)c2)C(C)(O)C12CCOC2=O` (configuration not stated), the GI50 in the assay with ACHN, in the assay with HOP-62, in the assay with KM12, in the assay with MOLT-4, in the assay with Malme-3M and in the assay on NCI-H460 was > 100 µM (inactive) in each case. In addition, the GI50 in the assay with OVCAR-5, in the assay on OVCAR-8, with RPMI-8226, in the assay with SK-MEL-28, in the assay on SK-MEL-2 and with SN12C was > 100 µM (inactive) each time. Further, the GI50 in the assay with SNB-75, in the assay with SW-620, in the assay on UACC-62 and in the assay on UO-31 was > 100 µM (inactive) in each case.
Take `C[C@H](CC[C@@H](O)C(C)(C)O)[C@H]1CC[C@@]2(C)[C@@H]3CC=C4[C@@H](CC[C@H](O)C4(C)C)[C@]3(C)C(=O)C[C@]12C` [BRYODULCOSIGENIN]: the GI50 with ACHN is > 50 µM (inactive); in the assay on CCRF-CEM it was 16.5 µM (inactive); with HOP-62 it was > 50 µM (inactive); with KM12, 15.1 µM (inactive); in the assay on MOLT-4, 19.5 µM (inactive); in the assay on Malme-3M, > 50 µM (inactive). The GI50 was 26.6 µM (inactive) in the assay on NCI-H23; 31.1 µM (inactive) with NCI-H460; 16.8 µM (inactive) in the assay with OVCAR-5; 27.4 µM (inactive) in the assay on OVCAR-8; 13.3 µM (inactive) with RPMI-8226; 24.2 µM (inactive) with SK-MEL-28. Besides, the GI50 in the assay with SK-MEL-2 was 40.7 µM (inactive); in the assay on SN12C, 28.6 µM (inactive); in the assay on SW-620, 22.8 µM (inactive); in the assay on TK-10, > 50 µM (inactive); in the assay with UO-31 it was 34 µM (inactive).

For the origin of these results see ChEMBL document CHEMBL1201862, “PubChem BioAssay data set” (2004).
